From US20260374773A1, “MULTI-CYCLIC IRAK AND FLT3 INHIBITING COMPOUNDS AND USES THEREOF” (CHILDREN'S HOSPITAL MEDICAL CENTER, priority 2022, published 2026)

Experiments:
IRAK4 = biological target: T1, IRAK4 (Homo sapiens, UniProt Q9NWZ3); experiment: NanoBRET target engagement assay in HEK-293 cells, IRAK4; format: cell-based; conditions: live HEK-293 cells, 1 h
T1 sequence (Q9NWZ3 1-460): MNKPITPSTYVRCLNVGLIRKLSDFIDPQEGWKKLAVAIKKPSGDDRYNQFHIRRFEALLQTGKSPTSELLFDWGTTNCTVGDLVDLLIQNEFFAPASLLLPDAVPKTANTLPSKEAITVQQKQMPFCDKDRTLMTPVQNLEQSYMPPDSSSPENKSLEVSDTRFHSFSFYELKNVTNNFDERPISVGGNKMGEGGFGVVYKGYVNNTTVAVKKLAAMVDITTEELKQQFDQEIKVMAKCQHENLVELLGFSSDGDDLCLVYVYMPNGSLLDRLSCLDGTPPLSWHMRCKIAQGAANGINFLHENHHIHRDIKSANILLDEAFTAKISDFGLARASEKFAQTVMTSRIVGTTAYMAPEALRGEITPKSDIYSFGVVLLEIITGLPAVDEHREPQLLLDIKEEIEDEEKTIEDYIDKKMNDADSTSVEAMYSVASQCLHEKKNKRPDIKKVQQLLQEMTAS
From the text: The NanoBRET assay measures kinase engagement in real time in the context of the intact cell. Unlike the previously described biochemical kinase assay methodology, the NanoBRET assay measures the binding and activity characteristics under equilibrium conditions using full-length kinases in the presence of cellular concentrations of ATP in live, uncompromised cells. As such, the assay provides a more relevant assessment of kinase potency and selectivity that would be expected to be observed in the native cellular environment, where potency is often considerably lower than that observed in the isolated biochemical assays (Vasta, J. D. et al., (2018) Cell Chem. Biol. 25, 206-214). The assay uses a Kinase-NanoLuc® fusion vector expressing a kinase protein to which a luciferase tag has been added, a cell-permeant fluorescent NanoBRET™ tracer, a NanoLuc® substrate, and an extracellular NanoLuc® inhibitor. Upon expression of the luciferase-tagged kinase, cells will produce a strong BRET signal only in the presence of the NanoBRET™ tracer. The extracellular NanoLuc® inhibitor ensures that the BRET signal observed emanates only from live cells. Because the BRET signal has tight distance constraints, addition of the test compound will decrease the BRET signal if the compound competes with the NanoBRET™ tracer for binding to the kinase domain. Under the appropriate tracer conditions established by the manufacturer, quantitative intracellular affinity and relative potency can then be determined using Mass Action model equations.
HEK-293 cells were purchased from ATCC. FuGENEHD Transfection Reagent, Kinase-NanoLucfusion plasmids, Transfection Carrier DNA, NanoBRETTracers and dilution buffer, NanoBRETNano-Glo Substrate, Extracellular NanoLucInhibitor were obtained from Promega.
Assays were conducted following Promega assay protocol with some modifications. HEK-293 Cells were transiently transfected with Kinase-NanoLucFusion Vector DNA by FuGENEHD Transfection Reagent. Testing compounds were delivered into 384 well assay plate by Echo 550 (LabcyteInc, Sunnyvale, CA). Transfected cells were harvested and mixed with NanoBRETTracer Reagent and dispensed into 384 well plates and incubated at 37 °C in 5% CO2 cell culture incubator for 1 hour. The NanoBRETNano-Glo Substrate plus Extracellular NanoLucInhibitor Solution were added into the wells of the assay plate and incubated for 2-3 minutes at room temperature. The donor emission wavelength (460 nm) and acceptor emission wavelength (600 nm) were measured in the En Visionplate reader. The BRET Ratios were calculated.
BRET Ratio=[(Acceptor sample÷Donor sample)−(Acceptor no-tracer control÷Donor no-tracer control)].
The IC50 values of compounds were calculated with Prism GraphPad program.
• 1). Cultivate HEK-293 cells (70-80% confluence) appropriately prior to assay. Trypsinize and collect HEK-293 cells. • 2). Prepare lipid:DNA complexes as follows: • a. Prepare a 10 μg/ml solution of DNA in Opti-MEM without serum that consists of the following ratios of carrier DNA and DNA encoding NanoLuc® fusion. 9.0 μg/mL of Transfection Carrier DNA, 1.0 μg/mL of NanoLuc fusion vector DNA and 1 mL of Opti-MEM without phenol red. Mix thoroughly. • b. Add 30 μl of FuGENE HD Transfection Reagent into each milliliter of DNA mixture to form lipid:DNA complex. • c. Mix by inversion 10 times. • d. Incubate at ambient temperature for 20 minutes to allow complexes to form. • 3). In a sterile, conical tube, mix 1 part of lipid:DNA complex with 20 parts of HEK-293 cells in suspension. Mix gently by inversion 5 times. • 4). Dispense cells+lipid:DNA complex into a sterile tissue culture dish and incubate for 22-24 hours.
Each test compound is delivered from the compound source plate to the wells of 384-well white NBS plate by Echo 550.
3. Preparation of Cells with NanoBRET™ Tracer Reagent • 1). Remove medium from dish with transfected HEK-293 cells via aspiration, trypsinize and allow cells to dissociate from the dish. • 2). […]

MOLM14 D835Y cells = experiment: MOLM14 D835Y cell viability (Cell Titer Glo); format: cell-based; conditions: Homo sapiens
Summary of the method: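 FLT3-D835Y-mutant MOLM14 cells, 1000/well in RPMI-1640 with 20% FBS, treated with 22-point 1:2 dilutions starting at 10 μM. After 48 h incubation, viability was read by CellTiter-Glo luminescence; bortezomib (2.3 μM final) served as cytotoxic control.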

IC50 (IRAK4; Table 14) [nM]	IC50 (MOLM14 D835Y cells; MOLM-14, Table 16, 48 h) [nM]	IC50 (IRAK4; Table 20) [nM]	IC50 (MOLM14 D835Y cells; MOLM-14, Table 22, 48 h) [nM]	Compound
< 0.5	11			COc1cn2ncc(-c3ccc(F)c(N[C@H]4CNCC[C@@H]4F)n3)c2nc1C1CC1 [Compound 6, 6-(5-cyclopropyl-6-methoxypyrazolo[1,5-a]pyrimidin-3-yl)-3-fluoro-N-((3S,4S)-4-fluoropiperidin-3-yl)pyridin-2-amine]
		< 0.5	2	COc1cn2ncc(-c3nc(N[C@H]4CNCC[C@@H]4F)ncc3F)c2nc1C1CC1 [Compound 15a, 4-(5-cyclopropyl-6-methoxypyrazolo[1,5-a]pyrimidin-3-yl)-5-fluoro-N-((3S,4S)-4-fluoropiperidin-3-yl)pyrimidin-2-amine]
		0.6	26	COc1cn2ncc(-c3ccnc(N[C@H]4CNC[C@@H]4F)n3)c2nc1C1CC1 [Compound 8a, 4-(5-cyclopropyl-6-methoxypyrazolo[1,5-a]pyrimidin-3-yl)-N-((3S,4S)-4-fluoropyrrolidin-3-yl)pyrimidin-2-amine]
		< 0.5	1	COc1cn2ncc(-c3nc(N[C@@H]4CCCNC4)ncc3F)c2nc1C1CC1 [Compound 14a, (R)-4-(5-cyclopropyl-6-methoxypyrazolo[1,5-a]pyrimidin-3-yl)-5-fluoro-N-(piperidin-3-yl)pyrimidin-2-amine]
		3	11	COc1cn2ncc(-c3nc(N[C@@H]4CCCNC4)ncc3F)c2nc1C(C)(C)O [Compound 4a, (R)-2-(3-(5-fluoro-2-(piperidin-3-ylamino)pyrimidin-4-yl)-6-methoxypyrazolo[1,5-a]pyrimidin-5-yl)propan-2-ol]
< 0.5	2			COc1cn2ncc(-c3nc(N[C@H]4CNCC[C@@H]4F)ccc3F)c2nc1C1CC1 [Compound 3, 6-(5-cyclopropyl-6-methoxypyrazolo[1,5-a]pyrimidin-3-yl)-5-fluoro-N-((3S,4S)-4-fluoropiperidin-3-yl)pyridin-2-amine]
		< 0.5	4	COc1cn2ncc(-c3nc(N[C@H]4CNC[C@@H]4F)ncc3F)c2nc1C1CC1 [Compound 13a, 4-(5-cyclopropyl-6-methoxypyrazolo[1,5-a]pyrimidin-3-yl)-5-fluoro-N-((3S,4S)-4-fluoropyrrolidin-3-yl)pyrimidin-2-amine]
